# Measurements published in patent publication US7442713B2, “2-thio-substituted imidazole derivatives and their use in pharmaceutics” (Merckle GmbH, priority 2002, dated 2008).
# Assays:
# TNFα = assay: In vitro test of cytokine release, LPS-stimulated human whole blood / PBMCs: TNFα; type: cell-based; details: LPS stimulation, ELISA; for IC50: Homo sapiens, PBMC, read-out: Cytokines IC50 TNF α
# Experimental: (§1) The compounds or compositions according to the invention can be administered to mammals (man or animal) in a dose of from about 0.5 mg to 100 mg per kg of body weight per day. They may be administered in one individual dose or in a plurality of doses. The activity spectrum of the compounds as inhibitors of cytokine release was examined using the test systems below, as described by C. Donat and S. Laufer in Arch. Pharm. Pharm. Med. Chem. 333, Suppl. 1, 1-40, 2000.
# (§2) In vitro Test with Human Whole Blood
# (§3) The test substance is added to samples of human potassium-EDTA whole blood (of 400 μl each) and the samples are preincubated in a CO2 incubator (5% CO2; 95% moisture-saturated air) at 37° C. for 15 min. The samples are then stimulated with 1 μg/ml of LPS (E. coli 026:B6) at 37° C. in a CO2 incubator (5% CO2; 95% moisture-saturated air) for 4 hours. The reaction is stopped by placing the samples on ice, adding DPBS buffer and then centrifuging at 1000*g for 15 min. The amount of IL-1β and TNFα in the plasma supernatant is then determined by ELISA.
# (§4) 1) The mononuclear cells (PBMCs) from human potassium-EDTA whole blood, diluted 1:3, are isolated by density gradient centrifugation (Histopaque®-1.077). The cells are washed twice with DPBS buffer, resuspended in macrophage SFM medium and adjusted to a cell count of 1*10^6 cells/ml.
# (§5) The resulting PBMCs suspension (samples of in each case 390 μl) and the test substance are preincubated at 37° C. in a CO2 incubator (5% CO2; 95% moisture-saturated air) for 15 min. The samples are then stimulated with in each case […] of LPS (E. coli 026:B6) at 37° C. in a CO2 incubator (5% CO2; 95% moisture-saturated air) for 4 hours. The reaction is stopped by placing the samples on ice, adding DPBS buffer and then centrifuging at 15 880*g for 12 min. The amount of IL-1β and TNFα in the plasma supernatant is then determined by ELISA.
# IL-1β = assay: In vitro test of cytokine release, LPS-stimulated human whole blood / PBMCs: IL-1β; type: cell-based; details: PBMC, LPS stimulation, ELISA, read-out: Cytokines IC50 IL-1β
# Experimental: as §1, §2, §3, §4, §5
# activated p38α = activated p38α (Homo sapiens, UniProt Q16539); assay: Kinase assay (p38α, ATF2 substrate, ELISA read-out); type: biochemical; details: Table 1; for IC50: 100 μM ATP, 10 ng activated p38α, read-out: Kinase assay IC50
# Experimental: At 37° C., microtiter plates were coated with 50 μl of ATF2 solution ([…]) for one hour. The plates were washed three times with water, and 50 μl of kinase mixture (50 mM tris-HCl, 10 mM MgCl2, 10 mM β-glycerol phosphate, 10 μg/ml BSA, 1 mM DTT, 100 μM ATP, 100 μM Na3VO4, 10 ng of activated p38α) with or without inhibitor were then added into the wells, and the plates were incubated at 37° C. for 1 hour. The plates were washed three times and then incubated at 37° C. with phosphorus-ATF-2 antibodies for one hour. Once more, the plates were washed three times, and goat-anti-rabbit IgG labeled with alkaline phosphatase was then added at 37° C. for one hour (to immobilize antibody-phosphorylated protein-substrate complex). After washing three times, the alkaline phosphatase-substrate solution (3 mM 4-NPP, 50 mM NaHCO3, 50 mM MgCl2, 100 μl/well) was added at 37° C. for 1.5 hours. The formation of 4-nitrophenolate was measured at 405 nm using a microtiter plate reader. The IC50 values were calculated.
# Sequence of activated p38α (Q16539 whole entry): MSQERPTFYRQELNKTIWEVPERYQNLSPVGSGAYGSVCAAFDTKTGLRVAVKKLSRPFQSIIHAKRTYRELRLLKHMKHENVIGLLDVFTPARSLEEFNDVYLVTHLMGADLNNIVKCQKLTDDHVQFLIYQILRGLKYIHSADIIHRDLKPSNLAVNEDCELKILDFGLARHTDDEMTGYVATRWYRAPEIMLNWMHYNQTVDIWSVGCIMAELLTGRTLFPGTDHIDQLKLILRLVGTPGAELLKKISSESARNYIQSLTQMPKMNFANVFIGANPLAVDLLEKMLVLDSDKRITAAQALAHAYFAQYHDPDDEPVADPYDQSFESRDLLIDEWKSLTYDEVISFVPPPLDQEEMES
SMILES,IC50 (TNFα),IC50 (IL-1β),Kinase assay % at 10^−5 mol/l (activated p38α; at 10^−5 mol/l),IC50 (activated p38α),Cytokines TNF α % at 10^−5 mol/l (TNFα)
"CN(C)C(=O)CSc1nc(-c2ccc(F)cc2)c(-c2ccncc2)n1C [Example 27, 1-[4-(4-Fluorophenyl)-1-methyl-5-pyridin-4-yl-1H-imidazol-2-ylsulfanyl]-N,N-dimethylacetamide]",3 µM,0.15 µM,29.0% at10^−5 mol/l,–,–
"OCC(O)CSc1nc(-c2ccc(F)cc2)c(-c2ccncc2)[nH]1 (centres unmarked) [Example 21, 5-(4-Fluorophenyl)-4-(4-pyridinyl)imidazole-2-thio-1-propane-2,3-diol]",0.9 µM,0.15 µM,–,–,–
"CCOC(=O)C(Sc1nc(-c2ccc(F)cc2)c(-c2ccncc2)[nH]1)C(=O)OCC [Example 22, Diethyl 5-(4-fluorophenyl)-4-(4-pyridinyl)imidazole-2-thio-2-malonate]",0.36 µM,0.54 µM,–,–,–
"COC(=O)CCCCSc1nc(-c2ccc(F)cc2)c(-c2ccncc2)[nH]1 [Example 25, Methyl 5-(4-fluorophenyl)-4-(4-pyridinyl)imidazole-2-thio-5-valerate]",–,1.45 µM,–,–,28% at10^−5 mol/l
"O=C(O)C(CCO)Sc1nc(-c2ccc(F)cc2)c(-c2ccncc2)[nH]1 (centres unmarked) [Example 24, 5-(4-Fluorophenyl)-4-(4-pyridinyl)imidazole-2-thio-2-butanoic acid-4-ol]",3.8 µM,0.14 µM,–,–,–
"O=C1OCCC1Sc1nc(-c2ccc(F)cc2)c(-c2ccncc2)[nH]1 (centres unmarked) [Example 23, 5-(4-Fluorophenyl)-4-(4-pyridinyl)imidazole-2-thio-3-butyrolactone]",3.8 µM,0.19 µM,–,–,–

# Second part, led by results:
IC50 (TNFα),IC50 (IL-1β),Kinase assay % at 10^−5 mol/l (activated p38α; at 10^−5 mol/l),IC50 (activated p38α),SMILES,Cytokines TNF α % at 10^−5 mol/l (TNFα)
9.5 µM,0.7 µM,–,0.975 µM,"CCOC(=O)CSc1nc(-c2ccc(F)cc2)c(-c2ccncc2)[nH]1 [Example 25e, Ethyl 5-(4-fluorophenyl)-4-(4-pyridinyl)imidazole-2-thio-2-acetate]",–
–,0.75 µM,–,–,"COC(=O)CCCSc1nc(-c2ccc(F)cc2)c(-c2ccncc2)[nH]1 [Example 25a, Methyl 5-(4-fluorophenyl)-4-(4-pyridinyl)imidazole-2-thio-4-butyrate]",38% at10^−5 mol/l
1.1 µM,0.65 µM,–,–,"COC(=O)/C=C/CSc1nc(-c2ccc(F)cc2)c(-c2ccncc2)[nH]1 [Example 25b, Methyl 5-(4-fluorophenyl)-4-(4-pyridinyl)imidazole-2-thio-4-crotonate]",–
2.1 µM,0.32 µM,–,0.75 µM,"COC(=O)CSc1nc(-c2ccc(F)cc2)c(-c2ccncc2)[nH]1 [Example 25c, Methyl 5-(4-fluorophenyl)-4-(4-pyridinyl)imidazole-2-thio-2-acetate]",–
